# Source: publication PMC9365994, “Small molecules to regulate the GH/IGF1 axis by inhibiting the growth hormone receptor synthesis” (Frontiers in Endocrinology, 2022)
# Where two headings read alike, the source gives them in different places.
# System: phosphorylated fos-GHRct (fos-GHRct/Jak2 signaling)
# Test: Cell based primary screen: immune fluorescence (anti-GHR, anti-pY, anti-pJak2, anti-pSTAT5) of fos-GHRct-transfected γ2A iJak2 cells
# Parameters: species or system human
# Settings: for phosphorylation of STAT5 (pSTAT5) / phosphorylation of fos-pGHRct (pY) / phosphorylation of the active site of Jak2 (p1007/1008): concentration curves, Fig S10
# Procedure: Drug handling and cell-based assays are detailed in Supplementary Data 1 , automation. High-Content StratoMineR ([35]). After incubation with the compounds, the cells were fixed and the fluorescence (anti-GHR, anti-pY, anti-pJak2, anti-pSTAT5) was quantitated.
# As it was unknown whether the GH/IGF1 axis is druggable, we designed a broad strategy based on our previous studies in which soluble fos-zipped GHR cytosolic tails (fos-GHRct) can serve as signaling complexes if co-expressed with Jak ([32], [39]). Fos-GHRct expressed without Jak2 is immediately degraded by the ubiquitin pathway. Phosphorylated fos-GHRct (fos-pGHRct) detaches from Jak2 and unzips. Only unzipped fos-pGHRct are protected from proteasomal degradation and accumulate in the cell. […] For 6 scenarios the signal will be decreased: (1) inhibition of Jak2 kinase activity, (2) inhibition of fos-GHRct expression, (3) inhibition of the fos-GHRct : Jak2 interaction, (4) increased degradation of fos-pGHRct, (5) increased degradation of Jak2, and (6) dephosphorylation of fos-pGHRct ([32], [39]).
# Figure 1 Diagram of the primary screen. […] If fos-GHRct and Jak2 bind via FERM and box-1, Jak2 gets activated and phosphorylates itself, the dimerized fos-GHRct and STAT5b. After phosphorylation of fos-GHRct, Jak2 and STAT5, the complex dissociates. As fos-pGHRct is protease-resistant, it accumulates in the cells. Unphosphorylated fos-GHRct is rapidly degraded. Steady state levels of fos-pGHRct are lower if one of the 6 scenarios is valid. The cell-based assay was performed in γ2A cells carrying inducible Jak2 (iJak2) or binding-deficient iJak2 Y119E (as control) ( Figure 2 ). […]
# 1. Cell based primary screen
# The assay was based on Fos-zippered GHR cytosolic tails (fos-GHRct) subsequently acting […]
# Fig S1A. Immune Fluorescence staining of γ2a Fig S1B. Immune Fluorescence staining of γ2a monoclonal cell line stably transfected with an monoclonal cell line stably transfected with an inducible Jak2 WT expression construct. inducible Jak2 Y119E expression construct. aim we used a human fibroblast cell line
# From this line we generated doxycycline inducible Jak2 clones, expressing either wild type Jak2 or Y119E mutant Jak2 whose FERM domain does […]
# To establish a sensitive test, sufficient […]
# control the system, we used fos-GHRct mutated in box-1 or the cell line expressing mutant (Y119E) Jak2. The box-1 motif is the binding site of Jak2 in GHR; mutation of this motif (all four proline into alanine) is known to reduce the binding between GHR and Jak2. In the primary screen we measured 4 different signals: fos-GHRct (anti-GHR), tyrosine phosphorylated fos-GHRct (anti-pY), tyrosine phosphorylated Jak2 (anti-pY or anti- […]
# inhibition of either fos-GHRct stabilization or fos-GHRct synthesis, are considered positive.
# Immunoblots are not appropriate for high throughput screening. Using fos-GHRct-transfected cells as in Fig. S3 and pY-specific primary antibodies, we developed a high throughput screening assay based on pY-fos-GHRct immune fluorescent detection in 384-well plates with automated microscopy. […]
# panel). From left to right: Dapi staining to visualize nuclei, fos-GHRct staining: GHRtails are detected by […]
# [1] = Homo sapiens, Figure 4, ranked according inhibitory effects on GHR signaling and/or cell proliferation, read-out: IC50
# [2] = Homo sapiens, Table_2.xlsx, second analogue set, read-out: GHR INHIBITORS, BM#, IC50
Structure (SMILES),IC50 [2],IC50 [1],phosphorylation of STAT5 (pSTAT5),phosphorylation of fos-pGHRct (pY),phosphorylation of the active site of Jak2 (p1007/1008),further results
Cc1nc(N)nc(N)c1/C=C/C1(c2ccc(C(F)(F)F)cc2)CC1 [BM001],–,0.02 to 0.03 µM,–,–,–,"EC50 (Homo sapiens, Table_2.xlsx, cell prints EC50, read-out: GHR INHIBITORS, BM#, EC50): 0.02 to 0.03 µM"
Cc1c(-c2cccc(C#N)c2)ccc2nc(N)nc(N)c12 [BM002],0.05 µM,–,–,–,–,–
COc1cc(CN(C)c2ccc3nc(N)nc(N)c3c2)cc(OC)c1OC [BM003],0.05 µM,–,–,–,–,–
Cc1nc(N)nc(N)c1C#CC1(c2ccc(Cl)cc2)CC1 [BM004],–,0.08 µM,lowered,lowered,lowered,"IC50 (Homo sapiens, primary screen protocol, 20 h, read-out: IC50, dose-response on pY levels (fos-GHRct, pJak2, pSTAT5)): ~0.2 µM; IC50, dose-response on pY levels (fos-GHRct, pJak2, pSTAT5) (primary screen protocol, 20 h): comparable to that of Ruxolitinib"
CCOc1cccc2nc(N)nc(N)c12 [BM012],–,–,lowered,lowered,lowered,"IC50 (Homo sapiens, Table_1.xlsx, first analogue set, read-out: GHR INHIBITORS, BM#, (IC50)): 0.9 µM"
"N#CC[C@H](C1CCCC1)n1cc(-c2ncnc3[nH]ccc23)cn1 [Ruxolitinib, reference compound]",–,–,–,–,–,pY signal at plateau of dose-response: close to zero
